Laboratory results reported in US20240043928A1, “BIOMARKERS FOR MYELODYSPLASTIC SYNDROME (MDS) AND METHODS OF USING THE SAME” (Eisai R&D Management Co., Ltd., priority 2020, published 2024).

Assay: Phase I study NCT02841540: treatment-related adverse events and dose-limiting toxicities
Format: in vivo, human
Description: Patients were enrolled using a conventional 3+3 dose escalation phase I design, with escalations based on a modified Fibonacci sequence scheme (Storer Biometrics. 1989;45(3):925-937). Dose escalations continued until a dose level at which ≥2 patients of the 3-6 enrolled experienced a dose-limiting toxicity (DLT). Maximally tolerated dose (MTD) was defined as the highest dose at which no more than 1 out of 6 patients experienced a DLT. DLTs were defined as any of the following: any Grade 3 or greater study drug-related non-hematologic toxicity except for Grade 3 nausea, vomiting, fatigue, or diarrhea that resolved to Grade 1 or less within 1 week; failure to administer at least 70% of the protocol-specific dose; or prolonged myelosuppression with the persistence of Grade 4 cytopenia in the absence of persistent leukemia or blast increase 21 or more days after suspending dosing. DLTs were assessed during the first 28 days using National Cancer Institute (NCI) Common Toxicity Criteria for Adverse Events (CTCAE) version 4.03.
The primary endpoints measured included occurrence of DLTs, the type and frequency of treatment-emergent adverse events (TEAEs), and serious adverse events (SAEs). Key secondary endpoints included drug pharmacokinetics (PK) and preliminary antitumor activity, such as the overall response rate (ORR), effect of drug therapy on transfusion requirements, and overall survival (OS). Biomarker analyses and drug pharmacodynamics (PD) were included as exploratory endpoints. […] In addition, a second schedule (Schedule II) of 21 days on therapy and a rest of 7 days without therapy was explored. […] However, when limited clinical activity was observed on Schedule I, Schedule II was introduced to test whether more prolonged spliceosome modulation would lead to higher clinical activity. Each treatment cycle was 28 days in length. Patients could continue treatment until disease progression or development of unacceptable toxicity.
Eligibility criteria included normal vitamin A levels and visual acuity that corrected to 20/40 unless a cataract was present. Ophthalmologic evaluation, including fundoscopic imaging and visual evoked potentials, was performed during study screening and periodically throughout the duration of the trial.

C/C(=C\C=C\[C@@H](C)c1ccccn1)[C@H]1OC(=O)C[C@H](O)CC[C@@](C)(O)[C@@H](OC(=O)N2CCN(C)CC2)/C=C/[C@@H]1C [Compound 1, (2S,3S,4E,6S,7R,10R)-7,10-dihydroxy-3,7-dimethyl-12-oxo-2-[(2E,4E,6R)-6-(pyridine-2-yl)hepta-2,4-dien-2-yl]oxacyclododec-4-en-6-yl-4-methylpiperazine-1-carboxylate]
Any TEAE (treatment-related, all grades) (Schedule II, 7 mg QD, N = 5): 1 (20) n (%) | Diarrhea (treatment-related TEAE, all grades) (Schedule II, 7 mg QD, N = 5): 1 (20) n (%) | Dysgeusia (treatment-related TEAE, all grades) (Schedule II, 7 mg QD, N = 5): 0 n (%) | ECG QTcF prolonged (treatment-related TEAE, all grades) (Schedule II, 7 mg QD, N = 5): 0 n (%) | Fatigue (treatment-related TEAE, all grades) (Schedule II, 7 mg QD, N = 5): 0 n (%) | Hypophosphatemia (treatment-related TEAE, all grades) (Schedule II, 7 mg QD, N = 5): 0 n (%) | Nausea (treatment-related TEAE, all grades) (Schedule II, 7 mg QD, N = 5): 0 n (%) | Vomiting (treatment-related TEAE, all grades) (Schedule II, 7 mg QD, N = 5): 0 n (%) | dose dependency of treatment related AEs (Schedule II, 7 mg-20 mg): dose dependency trend | Any TEAE (treatment-related, all grades) (Schedule II, 12 mg QD, N = 5): 4 (80) n (%) | Diarrhea (treatment-related TEAE, all grades) (Schedule II, 12 mg QD, N = 5): 1 (20) n (%) | Dysgeusia (treatment-related TEAE, all grades) (Schedule II, 12 mg QD, N = 5): 1 (20) n (%) | ECG QTcF prolonged (treatment-related TEAE, all grades) (Schedule II, 12 mg QD, N = 5): 0 n (%) | Fatigue (treatment-related TEAE, all grades) (Schedule II, 12 mg QD, N = 5): 1 (20) n (%) | Hypophosphatemia (treatment-related TEAE, all grades) (Schedule II, 12 mg QD, N = 5): 2 (40) n (%) | Nausea (treatment-related TEAE, all grades) (Schedule II, 12 mg QD, N = 5): 1 (20) n (%) | Vomiting (treatment-related TEAE, all grades) (Schedule II, 12 mg QD, N = 5): 0 n (%) | patients with DLT grade 3 sinus bradycardia (Schedule II, 14 mg): 1 of 5 | Any TEAE (treatment-related, all grades) (Schedule II, 14 mg QD, N = 5): 4 (80) n (%) | Diarrhea (treatment-related TEAE, all grades) (Schedule II, 14 mg QD, N = 5): 2 (40) n (%) | Dysgeusia (treatment-related TEAE, all grades) (Schedule II, 14 mg QD, N = 5): 0 n (%) | ECG QTcF prolonged (treatment-related TEAE, all grades) (Schedule II, 14 mg QD, N = 5): 1 (20) n (%) | Fatigue (treatment-related TEAE, all grades) (Schedule II, 14 mg QD, N = 5): 0 n (%) | Hypophosphatemia (treatment-related TEAE, all grades) (Schedule II, 14 mg QD, N = 5): 0 n (%) | Nausea (treatment-related TEAE, all grades) (Schedule II, 14 mg QD, N = 5): 0 n (%) | Vomiting (treatment-related TEAE, all grades) (Schedule II, 14 mg QD, N = 5): 1 (20) n (%) | patients with DLTs (Grade 3 QTc prolongation; Grade 3 nausea) (Schedule II, 20 mg): 2 of 4 | subjects reporting grade 3 AEs (Schedule II, 20 mg): 3 of the 4 | Any TEAE (treatment-related, all grades) (Schedule II, 20 mg QD, N = 4): 4 (100) n (%) | Diarrhea (treatment-related TEAE, all grades) (Schedule II, 20 mg QD, N = 4): 4 (100) n (%) | Dysgeusia (treatment-related TEAE, all grades) (Schedule II, 20 mg QD, N = 4): 1 (25) n (%) | ECG QTcF prolonged (treatment-related TEAE, all grades) (Schedule II, 20 mg QD, N = 4): 2 (50) n (%) | Fatigue (treatment-related TEAE, all grades) (Schedule II, 20 mg QD, N = 4): 1 (25) n (%) | Hypophosphatemia (treatment-related TEAE, all grades) (Schedule II, 20 mg QD, N = 4): 0 n (%) | Nausea (treatment-related TEAE, all grades) (Schedule II, 20 mg QD, N = 4): 2 (50) n (%) | Vomiting (treatment-related TEAE, all grades) (Schedule II, 20 mg QD, N = 4): 3 (75) n (%) | Anemia (Grade 3 or 4 treatment-related TEAE) (Schedule II, N = 19): 0 n (%) | ECG QTcF prolonged (Grade 3 or 4 treatment-related TEAE) (Schedule II, N = 19): 1 (5) n (%) | Fatigue (Grade 3 or 4 treatment-related TEAE) (Schedule II, N = 19): 1 (5) n (%) | Hypophosphatemia (Grade 3 or 4 treatment-related TEAE) (Schedule II, N = 19): 1 (5) n (%) | Nausea (Grade 3 or 4 treatment-related TEAE) (Schedule II, N = 19): 1 (5) n (%) | Platelet count decreased (Grade 3 or 4 treatment-related TEAE) (Schedule II, N = 19): 1 (5) n (%) | Sinus bradycardia (Grade 3 or 4 treatment-related TEAE) (Schedule II, N = 19): 1 (5) n (%) | Any TEAE (treatment-related, all grades) (Schedule II, Total, N = 19): 13 (68) n (%) | Diarrhea (treatment-related TEAE, all grades) (Schedule II, Total, N = 19): 8 (42) n (%) | Dysgeusia (treatment-related TEAE, all grades) (Schedule II, Total, N = 19): 2 (11) n (%) | ECG QTcF prolonged (treatment-related TEAE, all grades) (Schedule II, Total, N = 19): 3 (16) n (%) | Fatigue (treatment-related TEAE, all grades) (Schedule II, Total, N = 19): 2 (11) n (%) | Hypophosphatemia (treatment-related TEAE, all grades) (Schedule II, Total, N = 19): 2 (11) n (%) | Nausea (treatment-related TEAE, all grades) (Schedule II, Total, N = 19): 3 (16) n (%) | Vomiting (treatment-related TEAE, all grades) (Schedule II, Total, N = 19): 4 (21) n (%) | QTcF (Fridericia method) prolongation, treatment-related TEAE (Schedule II, all patients): 16% | diarrhea, treatment-related TEAE (Schedule II, all patients): 42% | dysgeusia, treatment-related TEAE (Schedule II, all patients): 11% | fatigue, treatment-related TEAE (Schedule II, all patients): 11% | hypophosphatemia, treatment-related TEAE (Schedule II, all patients): 11% | nausea, treatment-related TEAE (Schedule II, all patients): 16% | vomiting, treatment-related TEAE (Schedule II, all patients): 21% | subjects with treatment related AEs (all grades) (Schedule II, highest dose level tested): 100% | subjects with treatment related AEs (all grades) (Schedule II, lowest dose level tested): 20% | patients who experienced an AE characterized as a DLT (both schedules): 6 patients | subjects reporting treatment related AEs (all grades) (both schedules): 63 subjects | subjects who reported grade 3 treatment related AEs (both schedules): 12 subjects | ocular adverse event (in vivo): One event of Grade 3 ocular papilledema was reported, without loss in visual acuity
